In article PMC8327158, “PEGylated AdipoRon derivatives improve glucose and lipid metabolism under insulinopenic and high-fat diet conditions” (Journal of Lipid Research, 2021):

Test system: HFD-fed wild-type mice
Test: Sphingolipid levels in tissues and serum of HFD-fed mice by mass spectrometry
Format: in vivo, mouse
Conditions: average ± SD
Description: Six-week-old wild-type male mice were fed HFD for 4 weeks or 7 months In total, 5 mg/Kg of PBS, Adiporon, AdipoRonPEG5, AdipoRonPEG6HTL were injected twice a day for 5 days. After 5 days of treatment, systemic test is performed, and serum (Before and after treatment), subcutaneous, epididymal, liver, heart samples were harvested for qPCR and sphingolipid analysis.
Flash-frozen tissue samples (~40 mg) in a borosilicate glass tube were quenched with 2.0 ml of organic extraction solvent (isopropanol: ethyl acetate, 15:85; v:v) and homogenized with a mechanical tissue disruptor. Immediately afterward, 20 μl of organic internal standard solution was added (Ceramide/Sphingoid Internal Standard Mixture II diluted 1:10 in ethanol). The mixture was vortexed for 20 s and sonicated in ultrasonic bath for 40 min at 40°C. The organic extract was allowed to reach room temperature, and 1.5 ml of HPLC water was added and a two-phase liquid-liquid extraction was performed. The upper phase was transferred to a new clean tube, and the lower aqueous phase containing the protein pellet was re-extracted with additional 2.0 ml of organic extraction solvent. The organic phases were combined and dried under nitrogen stream at 40°C. Dried extracts were stored at –80°C until analysis. For analysis of ceramides and sphingoid base species, the dried residues were reconstituted in 200 μl of methanol. Sphingomyelins required a sample dilution of 1:50 in methanol prior to analysis. Serum sphingolipids were extracted using a similar methodology requiring 25 μl of serum.
Liver, subcutaneous adipose tissue, pancreas, pancreatic islets were initially homogenized in 500 μl of cold PBS using an ultrasonic probe disruptor and keeping the sample on ice during sonication. In total, 50 μl of aqueous homogenate was aliquoted for protein determination. In total, 400 μl of the lysate was immediately quenched in 2.0 ml of organic extraction solvent.
In total, 5 μl of reconstituted samples was injected into an LC/MS/MS system for the analysis of ceramides and sphingoid bases, and 1 μl injection was required for the analysis of sphingomyelins. The system consisted of a Shimadzu LCMS-8050 triple-quadrupole mass spectrometer with the dual ion source operating in electrospray positive ionization mode. The mass spectrometer is coupled to a Shimadzu Nexera X2 UHPLC system equipped with three solvent delivery modules LC-30AD, three degassing units DGU-20A5R, an autosampler SIL-30ACMP, and a column oven CTO-20AC operating at 40°C (Shimadzu Scientific Instruments, Columbia, MD). Six sphingoid bases (d18:1 sphingosine, d18:1 sphingosine-1-phosphate, d18:1 deoxysphingosine, d18:0 sphinganine, d18:0 sphinganine-1-phosphate, d18:0 deoxysphinganine) and […] ceramide species and their metabolites (C16:0, C16:0 dihydroceramide, C16:0 glucosylceramide, C16:0 lactosylceramide, C16:0 sphingomyelin, C18:0, C18:0 dihydroceramide, C18:0 glucosylceramide, C18:0 sphingomyelin, C18:1, C20:0, C22:0, C22:0 glucosylceramide, C24:0, C24:0 dihydroceramide, C24:0 lactosylceramide, C24:0 sphingomyelin, C24:1, C24:1 dihydroceramide, C24:1 glucosylceramide, C24:1 sphingomyelin). Quantitative analysis of sphingolipids was achieved using selective reaction monitoring scan mode. Lipid separation was achieved by reverse phase LC on a 2.1 (i.d.) × 150 mm Ascentis Express C8, 2.7 micron (Supelco, Bellefonte, PA) column under gradient elution, using three different mobile phases: eluent A consisting of methanol/water/formic acid, 600/400/0.8, v/v/v with 5 mM ammonium formate, eluent B consisting of methanol/formic acid, 1,000/0.8, v/v with 5 mM ammonium formate, and eluent C consisting of CH3OH/CH2Cl2 350/650. The concentration of each metabolite was determined according to calibration curves using the peak-area ratio of analyte versus corresponding internal standard. Calibration curves were generated using serial dilutions of each target analyte.

[1] = scWAT, 5 mg/kg twice a day 5 days
[2] = serum at day 0 (before treatment)
[3] = serum at day 5, 5 mg/kg twice a day 5 days

`O=C(COc1ccc(C(=O)c2ccccc2)cc1)NC1CCN(Cc2ccccc2)CC1` [AdipoRon] was tested, and the “Hexosyl 20:0” value [1] was 615610.3 ± 235007.39 pg/mg, the “Hexosyl 22:0” value [1] was 6375434.2 ± 2782528.88 pg/mg and the “Hexosyl 24:0” value [1] was 21878746.0 ± 11579620.12 pg/mg. For the same molecule, the “Hexosyl 24:1” value [1] was 11496554.3 ± 5647659.03 pg/mg, the “Lactosyl 16:0” value [1] was 45792.6 ± 45798.33 pg/mg and the “Lactosyl 18:0” value [1] was 0.0 ± 0.0 pg/mg. For the same molecule, the “Lactosyl 22:0” value [1] was 49816.7 ± 23898.61 pg/mg, the “Lactosyl 24:1” value [1] was 86367.6 ± 22529.94 pg/mg and the “Lactosyl C24:0” value [1] was 55460.5 ± 33843.98 pg/mg. It also gave a Sphingaine1P [1] of 35443.6 ± 15686.23 pg/mg, a Sphinganine [1] of 29337.6 ± 16700.68 pg/mg and a Sphingosine [1] of 49182.2 ± 32181.22 pg/mg. The Sphingosine1P [1] was 37612.5 ± 17941.43 pg/mg, the “dCer 16:0” value [1] was 14580.7 ± 4393.04 pg/mg and the “dCer 18:0” value [1] was 17597.9 ± 5214.49 pg/mg. For the same molecule, the “dCer 20:0” value [1] was 80869.1 ± 48824.3 pg/mg, the “dCer 22:0” value [1] was 84488 ± 14825 pg/mg and the “dCer 24:0” value [1] was 96632.5 ± 27938.2 pg/mg. The “dCer 24:1” value [1] was 93338.7 ± 29289.58 pg/mg, the “Cer 14:0” value [2] was 8402.0 ± 1707.95 pg/mg and the “Cer 16:0” value [2] was 25341.1 ± 4464.54 pg/mg. For the same molecule, the “Cer 18:0” value [2] was 10061.4 ± 1406.12 pg/mg, the “Cer 18:1” value [2] was 0 pg/mg and the “Cer 20:0” value [2] was 144673.7 ± 32033.84 pg/mg. For the same molecule, the “Cer 22:0” value [2] was 2303972.0 ± 309633.22 pg/mg, the “Cer 24:0” value [2] was 1443539.8 ± 157739.65 pg/mg and the “Cer 24:1” value [2] was 986691.7 ± 101968.89 pg/mg. The “Cer 26:0” value [2] was 10057.2 ± 2818.25 pg/mg, the “Cer 26:1” value [2] was 0 pg/mg and the DeoxySphinganie [2] was 0.0 ± 0.0 pg/mg. For the same molecule, the Deoxysphingosine [2] was 0.0 ± 0.0 pg/mg, the “Hexosyl 14:0” value [2] was 2960.2 ± 601.74 pg/mg and the “Hexosyl 16:0” value [2] was 3024488.2 ± 155463.13 pg/mg. For the same molecule, the “Hexosyl 18:0” value [2] was 47892.4 ± 4333.97 pg/mg, the “Hexosyl 20:0” value [2] was 182974.2 ± 30498.44 pg/mg and the “Hexosyl 22:0” value [2] was 12192915.9 ± 1475247.57 pg/mg. The “Hexosyl 24:0” value [2] was 1341147.2 ± 57498.17 pg/mg, the “Hexosyl 24:1” value [2] was 3535698.6 ± 346272.3 pg/mg and the “Lactosyl 16:0” value [2] was 94073.6 ± 8945.71 pg/mg. For the same molecule, the “Lactosyl 18:0” value [2] was 0.0 ± 0.0 pg/mg, the “Lactosyl 22:0” value [2] was 60785.8 ± 9718.01 pg/mg and the “Lactosyl 24:1” value [2] was 85880.2 ± 22412.15 pg/mg. The “Lactosyl C24:0” value [2] was 103502.4 ± 17366.51 pg/mg, the Sphingaine1P [2] was 250934.3 ± 36218.42 pg/mg and the Sphinganine [2] was 45226.5 ± 8665.07 pg/mg. For the same molecule, the Sphingosine [2] was 43193.4 ± 8183.0 pg/mg, the Sphingosine1P [2] was 774207.2 ± 25661.64 pg/mg and the “dCer 16:0” value [2] was 16437.5 ± 2669.42 pg/mg. For the same molecule, the “dCer 18:0” value [2] was 10213.1 ± 2375.68 pg/mg, the “dCer 20:0” value [2] was 3716.7 ± 0.0 pg/mg and the “dCer 22:0” value [2] was 335078.3 ± 58715.16 pg/mg. For the same molecule, the “dCer 24:0” value [2] was 212159.3 ± 42613.52 pg/mg, the “dCer 24:1” value [2] was 111963.9 ± 12779.64 pg/mg and the “Cer 14:0” value [3] was 9165.8 ± 853.97 pg/mg. For the same molecule, the “Cer 16:0” value [3] was 17212.8 ± 1488.18 pg/mg, the “Cer 18:0” value [3] was 8049.1 ± 1033.29 pg/mg and the “Cer 18:1” value [3] was 0 pg/mg. The “Cer 20:0” value [3] was 135037.6 ± 17909.21 pg/mg, the “Cer 22:0” value [3] was 1736100.3 ± 185474.31 pg/mg and the “Cer 24:0” value [3] was 1412623.3 ± 289722.52 pg/mg. The “Cer 24:1” value [3] was 771667.5 ± 65564.62 pg/mg, the “Cer 26:0” value [3] was 11959.9 ± 2614.25 pg/mg and the “Cer 26:1” value [3] was 0 pg/mg. For the same molecule, the DeoxySphinganie [3] was 0.0 ± 0.0 pg/mg, the Deoxysphingosine [3] was 0.0 ± 0.0 pg/mg and the “Hexosyl 14:0” value [3] was 2960.2 ± 601.74 pg/mg. The “Hexosyl 16:0” value [3] was 3736352.2 ± 191696.45 pg/mg, the “Hexosyl 18:0” value [3] was 63748.7 ± 18002.6 pg/mg and the “Hexosyl 20:0” value [3] was 245486.5 ± 74132.09 pg/mg. The “Hexosyl 22:0” value [3] was 9390882.1 ± 688490.25 pg/mg, the “Hexosyl 24:0” value [3] was 1430423.2 ± 157556.06 pg/mg and the “Hexosyl 24:1” value [3] was 3036231.9 ± 367214.43 pg/mg. The “Lactosyl 16:0” value [3] was 94265.2 ± 16983.56 pg/mg, the “Lactosyl 18:0” value [3] was 0.0 ± 0.0 pg/mg and the “Lactosyl 22:0” value [3] was 58253.0 ± 5503.82 pg/mg. For the same molecule, the “Lactosyl 24:1” value [3] was 124049.2 ± 19300.14 pg/mg, the “Lactosyl C24:0” value [3] was 122340.7 ± 11760.71 pg/mg and the Sphingaine1P [3] was 423112.6 ± 48511.44 pg/mg. For the same molecule, the Sphinganine [3] was 11725.4 ± 1939.02 pg/mg, the Sphingosine [3] was 18235.7 ± 1946.06 pg/mg and the Sphingosine1P [3] was 1139765.2 ± 69403.83 pg/mg. For the same molecule, the “dCer 16:0” value [3] was 7198.9 ± 1199.82 pg/mg, the “dCer 18:0” value [3] was 4034.8 ± 845.83 pg/mg and the “dCer 20:0” value [3] was 2973.3 ± 1017.85 pg/mg. The “dCer 22:0” value [3] was 174957.8 ± 18878.67 pg/mg, the “dCer 24:0” value [3] was 105210.1 ± 6589.37 pg/mg and the “dCer 24:1” value [3] was 49553.1 ± 7051.68 pg/mg.
